# Measurements: PubChem BioAssay (NCI)
#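 Briefly, cells in 96-well plates were exposed to five compound concentrations for 48 h, and endpoints were estimated by linear interpolation. GI50 marks 50% less growth. TGI: total growth inhibition.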
# Columns and labels:
# Assay in all cases: inhibition of tumour cell growth, NCI panel, 48 h
# [1] = tested on: MCF7 breast
# [2] = tested on: SK-MEL-2 melanoma
# [3] = tested on: COLO 205 colon
# [4] = tested on: 786-0 renal
# [5] = tested on: SNB-19 CNS
# [6] = tested on: M14 melanoma
# [7] = tested on: EKVX NSCLC
# [8] = tested on: NCI-H460 lung
# [9] = tested on: ACHN renal
# [10] = tested on: MDA-MB-435
# [11] = tested on: UO-31 renal
# [12] = tested on: SK-OV-3 ovarian
# [13] = tested on: MDA-MB-231 breast
# [14] = tested on: NCI/ADR-RES ovarian
# [15] = tested on: LOX IMVI melanoma
# [16] = tested on: UACC-257 melanoma
# [17] = tested on: HCT-116 colon
# [18] = tested on: MALME-3M melanoma
# [19] = tested on: HCC-2998 colon
# [20] = tested on: HCT-15 colon
# [21] = tested on: OVCAR-4 ovarian
# [22] = tested on: SF-295 CNS
# [23] = tested on: HOP-62 NSCLC
# [24] = tested on: A498 renal
# [25] = tested on: SF-539 CNS
# [26] = tested on: BT-549 breast
# [27] = tested on: HT29 colon
# [28] = tested on: MOLT-4 leukemia
# [29] = tested on: NCI-H226 lung
# [30] = tested on: RXF 393 renal
# [31] = tested on: HS 578T breast
# [32] = tested on: HL-60(TB) leukemia
# [33] = tested on: RPMI-8226 leukemia
# [34] = tested on: SNB-75 CNS
# [35] = tested on: TK-10 renal
# [36] = tested on: DU-145 prostate
# [37] = tested on: SK-MEL-5 melanoma
# [38] = tested on: CAKI-1 renal
# [39] = tested on: U251 CNS
# [40] = tested on: KM12 colon
# [41] = tested on: IGROV1 ovarian
# [42] = tested on: SW-620 colon
# [43] = tested on: PC-3 prostate
# [44] = tested on: SN12C renal
# [45] = tested on: CCRF-CEM leukemia
# [46] = tested on: OVCAR-5 ovarian
# [47] = tested on: A549 NSCLC
# [48] = tested on: K-562 leukemia
# [49] = tested on: NCI-H23 lung
# [50] = tested on: NCI-H522 lung
# [51] = tested on: UACC-62 melanoma
# [52] = tested on: HOP-92 NSCLC
# [53] = tested on: OVCAR-8 ovarian
# [54] = tested on: SF-268 CNS
# [55] = tested on: SK-MEL-28 melanoma
# [56] = tested on: T-47D breast
structure (smiles),measurement,setting,value
CC(C)(C)c1cc(NC(=O)Nc2ccc(-c3cn4c5c(sc4n3)CCc3c[nH]cc3-5)cc2)no1,GI50,[1],1080 nM
same,TGI,[1],3.12 µM
same,GI50,[2],1240 nM
same,TGI,[2],3.15 µM
same,GI50,[3],1000 nM
same,TGI,[3],2230 nM
same,GI50,[4],754 nM
same,TGI,[4],2100 nM
same,GI50,[5],1580 nM
same,TGI,[5],> 50 µM
same,GI50,[6],1450 nM
same,TGI,[6],4.9 µM
same,GI50,[7],2050 nM
same,TGI,[7],> 50 µM
same,GI50,[8],1570 nM
same,TGI,[8],5.34 µM
same,GI50,[9],1980 nM
same,TGI,[9],> 50 µM
same,GI50,[10],1970 nM
same,TGI,[10],> 50 µM
same,GI50,[11],1330 nM
same,TGI,[11],3.9 µM
same,GI50,[12],2120 nM
same,TGI,[12],31.3 µM
same,GI50,[13],2000 nM
same,TGI,[13],18.1 µM
same,GI50,[14],1890 nM
same,TGI,[14],> 50 µM
same,GI50,[15],1300 nM
same,TGI,[15],3.23 µM
same,GI50,[16],2310 nM
same,TGI,[16],13.9 µM
same,GI50,[17],1700 nM
same,TGI,[17],12.5 µM
same,GI50,[18],1440 nM
same,TGI,[18],4.06 µM
same,GI50,[19],1680 nM
same,TGI,[19],7.49 µM
same,GI50,[20],1190 nM
same,TGI,[20],4.28 µM
same,GI50,[21],2620 nM
same,TGI,[21],> 50 µM
same,GI50,[22],738 nM
same,TGI,[22],1740 nM
same,GI50,[23],1150 nM
same,TGI,[23],2740 nM
same,GI50,[24],1040 nM
same,TGI,[24],2620 nM
same,GI50,[25],875 nM
same,TGI,[25],4.17 µM
same,GI50,[26],1310 nM
same,TGI,[26],4.22 µM
same,GI50,[27],949 nM
same,TGI,[27],1920 nM
same,GI50,[28],1260 nM
same,TGI,[28],> 50 µM
same,GI50,[29],2280 nM
same,TGI,[29],> 50 µM
same,GI50,[30],333 nM
same,TGI,[30],1800 nM
same,GI50,[31],950 nM
same,TGI,[31],2940 nM
same,GI50,[32],1510 nM
same,TGI,[32],> 50 µM
same,GI50,[33],1080 nM
same,TGI,[33],4.14 µM
same,GI50,[34],990 nM
same,TGI,[34],4.01 µM
same,GI50,[35],3.41 µM
same,TGI,[35],> 50 µM
same,GI50,[36],2310 nM
same,TGI,[36],> 50 µM
same,GI50,[37],1020 nM
same,TGI,[37],2110 nM
same,GI50,[38],1490 nM
same,TGI,[38],> 50 µM
same,GI50,[39],738 nM
same,TGI,[39],3.78 µM
same,GI50,[40],1550 nM
same,TGI,[40],6.1 µM
same,GI50,[41],2360 nM
same,TGI,[41],> 50 µM
same,GI50,[42],2130 nM
same,TGI,[42],15 µM
same,GI50,[43],1540 nM
same,TGI,[43],> 50 µM
same,GI50,[44],3 µM
same,TGI,[44],> 50 µM
same,GI50,[45],1790 nM
same,TGI,[45],> 50 µM
same,GI50,[46],2960 nM
same,TGI,[46],> 50 µM
same,GI50,[47],2020 nM
same,TGI,[47],> 50 µM
same,GI50,[48],1240 nM
same,TGI,[48],> 50 µM
same,GI50,[49],1420 nM
same,TGI,[49],4.87 µM
same,GI50,[50],1690 nM
same,TGI,[50],6.7 µM
same,GI50,[51],1640 nM
same,TGI,[51],5.88 µM
same,GI50,[52],1060 nM
same,TGI,[52],3.67 µM
same,GI50,[53],2480 nM
same,TGI,[53],> 50 µM
same,GI50,[54],1920 nM
same,TGI,[54],16.5 µM
same,GI50,[55],1540 nM
same,TGI,[55],9.5 µM
same,GI50,[56],1190 nM
same,TGI,[56],3.75 µM
